These results are taken from DBAASP.

In brackets after ≈: the same amount, converted by molar mass.

Among the test systems are Bacillus cereus; Escherichia coli; Micrococcus luteus; Saccharomyces cerevisiae; Staphylococcus aureus; Bacillus subtilis; Candida albicans; Escherichia coli JM109; Klebsiella pneumoniae.
Holding throughout (test): ≥ marks a high value that may be exact or a test limit, other limits are often not marked, values filed in µg/mL are converted to µM
Assay [1] deals with Escherichia coli ATCC 25922.
The test system of assay [2] is Pseudomonas aeruginosa ATCC 15692.
Assay [3] deals with Staphylococcus aureus ATCC 25923.
Assay [4] concerns Candida albicans NCPF 1467.
Assay [5] deals with Escherichia coli NCTC 10418.
The test system of assay [6] is Staphylococcus aureus NCTC 10788.
Assay [7] concerns Enterococcus faecalis NCTC 12697.
Assay [8] concerns Pseudomonas aeruginosa ATCC 27853.
For assay [9], the system named is Staphylococcus aureus NCTC 12493.
In assay [10] the test system is Acinetobacter baumannii NM35.
The subject of assay [11] is Acinetobacter baumannii NM8.
Assay [12] concerns Candida albicans ATCC 90028.
For assay [13], the system named is Escherichia coli ATCC 25726.
Assay [14] deals with Micrococcus luteus ATCC 4698.

For the molecule `CC[C@H](C)[C@H](NC(=O)[C@H](CC(C)C)NC(=O)[C@H](CCCN=C(N)N)NC(=O)[C@H](CCC(=O)O)NC(=O)[C@H](CC(C)C)NC(=O)[C@@H](NC(=O)[C@@H]1CCCN1C(=O)[C@H](CC(C)C)NC(=O)[C@H](C)NC(=O)[C@H](Cc1ccccc1)NC(=O)[C@H](C)NC(=O)[C@H](C)NC(=O)[C@@H](NC(=O)[C@H](CCCCN)NC(=O)CNC(=O)[C@@H](NC(=O)CNC(=O)[C@@H](NC(=O)[C@H](C)NC(=O)[C@H](C)N)[C@@H](C)O)[C@@H](C)O)[C@@H](C)O)C(C)C)C(=O)O` [AATGTGKTAAFALPVLERLI], the MIC with Bacillus cereus was not below 128 µM; in the assay with Escherichia coli it was more than 128 µM.
In the case of `CC[C@H](C)[C@H](NC(=O)[C@@H](N)Cc1ccccc1)C(=O)NCC(=O)N[C@@H](C)C(=O)N[C@@H](CC(C)C)C(=O)N[C@@H](CC(C)C)C(=O)N[C@@H](CCCN=C(N)N)C(=O)N1CCC[C@H]1C(=O)N[C@@H](C)C(=O)N[C@@H](CC(C)C)C(=O)N[C@@H](CCCCN)C(=O)N[C@@H](CC(C)C)C(=O)N[C@@H](CC(C)C)C(=O)N[C@@H](C)C(=O)NCC(=O)N[C@@H](CCCCN)C(N)=O` [FIGALLRPALKLLAGK], the MIC in assay [1] is 32 µM (≈ 53.8 µg/mL); with Micrococcus luteus, 4 µM (≈ 6.72 µg/mL); in [2], not below 256 µM; against Saccharomyces cerevisiae, not below 128 µM; in assay [3], 16 µM (≈ 26.9 µg/mL).
Turning to `CC[C@H](C)[C@H](NC(=O)[C@H](C)NC(=O)[C@H](CCCCN)NC(=O)[C@@H]1CCCN1C(=O)[C@@H](NC(=O)[C@H](CC(C)C)NC(=O)[C@H](CCCCN)NC(=O)[C@H](Cc1ccccc1)NC(=O)[C@H](CC(C)C)NC(=O)[C@@H](N)Cc1ccccc1)[C@@H](C)CC)C(=O)N[C@@H](CCCCN)C(=O)NCC(=O)N[C@@H](CC(C)C)C(=O)N[C@@H](CC(C)C)C(=O)N[C@@H](CCCCN)C(=O)N[C@@H](C)C(=O)N[C@@H](Cc1ccccc1)C(=O)N[C@H](C=O)CCCCN` [FLFKLIPKAIKGLLKAFK], the results for the MIC in [4], in assay [5] and in assay [6] were 4 µM (≈ 8.24 µg/mL), 8 µM (≈ 16.5 µg/mL) and 4 µM (≈ 8.24 µg/mL), respectively.
Turning to `CC(C)C[C@H](NC(=O)[C@@H](N)Cc1ccccc1)C(=O)NCC(=O)N[C@@H](CCCCN)C(=O)N[C@H](C(=O)N[C@@H](Cc1ccccc1)C(=O)N[C@@H](CCCCN)C(=O)N[C@@H](CCCCN)C(=O)N[C@H](C(=O)N[C@@H](CO)C(=O)N[C@@H](CCCCN)C(=O)N[C@H](C(=O)N[C@@H](Cc1ccccc1)C(=O)N1CCC[C@H]1C(=O)N[C@@H](C)C(=O)N[C@H](C(=O)N[C@@H](Cc1ccccc1)C(=O)NCC(=O)N[C@@H](CCCCN)C(=O)N[C@H](C(=O)O)C(C)C)C(C)C)C(C)C)C(C)C)C(C)C` [FLGKVFKKVSKVFPAVFGKV], the MIC is not below 57.5 µM in the assay on Bacillus cereus, 14.4 µM (≈ 32 µg/mL) in the assay with Escherichia coli and more than 57.5 µM in the assay on Staphylococcus aureus.
For `CC[C@H](C)[C@H](NC(=O)CNC(=O)CNC(=O)[C@H](C)NC(=O)[C@@H](NC(=O)[C@H](CCCCN)NC(=O)[C@@H]1CCCN1C(=O)[C@@H](NC(=O)[C@H](CCSC)NC(=O)[C@H](CO)NC(=O)[C@H](CC(C)C)NC(=O)[C@@H](N)Cc1ccccc1)[C@@H](C)CC)[C@@H](C)CC)C(=O)N[C@@H](C)C(=O)N[C@@H](CO)C(=O)N[C@@H](CC(C)C)C(=O)N[C@H](C(=O)N[C@@H](CCCCN)C(=O)N[C@@H](CC(N)=O)C(=O)N[C@@H](CC(C)C)C(N)=O)C(C)C` [FLSMIPKIAGGIASLVKNL], the results for the MIC in [4], in assay [5] and in assay [6] were 8.11 µM (≈ 16 µg/mL), not below 64.9 µM and 4.06 µM (≈ 8 µg/mL), respectively.
For `CC[C@H](C)[C@H](NC(=O)[C@H](Cc1ccc(O)cc1)NC(=O)[C@H](CC(C)C)NC(=O)[C@@H](N)Cc1ccccc1)C(=O)N[C@H](C(=O)N[C@@H](C)C(=O)N[C@@H](CCCCN)C(=O)N[C@@H](CC(C)C)C(=O)N[C@@H](CC(C)C)C(=O)N[C@@H](CO)C(=O)NCC(=O)N[C@@H](CC(C)C)C(=O)N[C@@H](CC(C)C)C(N)=O)C(C)C` [FLYIVAKLLSGLL], the MIC is 2 µM (≈ 2.9 µg/mL) in assay [4]; 2 µM (≈ 2.9 µg/mL) in assay [7]; not below 512 µM in assay [5]; more than 512 µM in [8]; 1 µM (≈ 1.45 µg/mL) in assay [6]; 2 µM (≈ 2.9 µg/mL) in assay [9].
For the molecule `CC[C@H](C)[C@H](NC(=O)[C@H](C)NC(=O)CNC(=O)[C@@H](NC(=O)[C@@H](N)Cc1ccccc1)C(C)C)C(=O)N[C@@H](C)C(=O)N[C@@H](C)C(=O)N[C@@H](C)C(=O)N[C@@H](CC(C)C)C(=O)N1CCC[C@H]1C(=O)N[C@@H](Cc1cnc[nH]1)C(=O)N[C@H](C(=O)N[C@H](C(=O)N[C@@H](CO)C(=O)N[C@@H](C)C(=O)N[C@H](C(=O)N[C@@H](CCCCN)C(=O)N[C@@H](CC(N)=O)C(=O)N[C@@H](C)C(=O)N[C@@H](CC(C)C)C(=O)O)[C@@H](C)CC)[C@@H](C)CC)C(C)C` [FVGAIAAALPHVISAIKNAL], the MIC in [4] was not below 120 µM; in assay [6], 16 µM (≈ 31.6 µg/mL).
For the molecule `CC[C@H](C)[C@H](NC(=O)CNC(=O)[C@H](CCCCN)NC(=O)[C@@H](NC(=O)[C@H](CC(C)C)NC(=O)[C@H](CO)NC(=O)CNC(=O)[C@H](CC(C)C)NC(=O)CNC(=O)[C@H](CCCCN)NC(=O)[C@H](CCCCN)NC(=O)[C@H](Cc1ccccc1)NC(=O)[C@@H](NC(=O)[C@H](CCCCN)NC(=O)[C@H](CCCCN)NC(=O)[C@H](CC(C)C)NC(=O)CN)[C@@H](C)CC)C(C)C)C(=O)N[C@@H](C)C(=O)N[C@@H](C)C(=O)N[C@@H](Cc1cnc[nH]1)C(=O)N[C@H](C(=O)N[C@@H](C)C(=O)N[C@@H](CO)C(N)=O)C(C)C` [GLKKIFKKGLGSLVKGIAAHVAS], the MIC in assay [10] stood at 2.5 µM (≈ 5.8 µg/mL); in assay [11] it was 5 µM (≈ 11.6 µg/mL); in [12], 10 µM (≈ 23.2 µg/mL); in [13], 10 µM (≈ 23.2 µg/mL); in assay [3], 250 µM (≈ 580 µg/mL).
Turning to `CC[C@H](C)[C@H](NC(=O)[C@H](Cc1ccccc1)NC(=O)[C@H](CCCN=C(N)N)NC(=O)[C@H](CO)NC(=O)[C@@H](NC(=O)[C@H](C)NC(=O)[C@H](C)NC(=O)[C@H](CCCCN)NC(=O)[C@@H](NC(=O)[C@H](CS)NC(=O)[C@@H](NC(=O)[C@@H]1CCCN1C(=O)[C@H](CO)NC(=O)[C@H](Cc1ccc(O)cc1)NC(=O)[C@@H](N)CC(C)C)[C@@H](C)O)C(C)C)C(C)C)C(=O)NCC(=O)N[C@@H](CCCCN)C(=O)N[C@H](C(=O)N[C@@H](CO)C(=O)N[C@@H](C)C(=O)O)C(C)C` [LYSPTCVKAAVSRFIGKVSA], the values for the MIC in the assay with Bacillus cereus and in the assay with Escherichia coli were not below 122 µM and more than 122 µM, respectively.
As to `CC[C@H](C)[C@H](NC(=O)[C@H](CCCCN)NC(=O)[C@H](CCCCN)NC(=O)[C@H](Cc1ccccc1)NC(=O)[C@@H](NC(=O)[C@H](CCCCN)NC(=O)[C@H](Cc1c[nH]c2ccccc12)NC(=O)[C@@H](N)CCCN=C(N)N)[C@@H](C)CC)C(=O)N[C@@H](CCC(=O)O)C(=O)N[C@@H](CCCCN)C(=O)N[C@@H](CCSC)C(=O)NCC(=O)NCC(=O)N[C@@H](CO)C(=O)N[C@@H](Cc1ccc(O)cc1)C(=O)N[C@@H](CS)C(=O)N[C@@H](CC(N)=O)C(=O)N[C@@H](CCCN=C(N)N)C(=O)N[C@@H](CCCN=C(N)N)C(=O)N[C@H](C(=O)NCC(=O)N[C@@H](CCCCN)C(=O)N[C@@H](CS)C(=O)N[C@@H](CCC(N)=O)C(=O)N[C@@H](CCCN=C(N)N)C(=O)N[C@@H](CCSC)C(=O)O)[C@@H](C)O` [RWKIFKKIEKMGGSYCNRRTGKCQRM], the MIC with Bacillus subtilis amounted to 10 µM (≈ 32.1 µg/mL); in the assay with Candida albicans, 50 µM (≈ 160 µg/mL); against Escherichia coli JM109, 28.3 µM (≈ 90.7 µg/mL); with Klebsiella pneumoniae it was 80 µM (≈ 256 µg/mL); with Saccharomyces cerevisiae, 28.3 µM (≈ 90.7 µg/mL).
In assay [14], `CC[C@H](C)[C@H](NC(=O)[C@H](CO)NC(=O)[C@H](CCCCN)NC(=O)[C@@H](N)CO)C(=O)N1CCC[C@H]1C(=O)NCC(=O)N[C@@H](CCCN=C(N)N)C(=O)N[C@@H](CO)C(=O)NCC(=O)O` [SKSIPGRSG] registered an MIC not below 75 µM.

A word on the MIC: it is the lowest concentration that inhibits growth of the organism. Higher therefore signals a need for much substance.
